Test [1] has as its target Delta-type opioid receptor (Rattus norvegicus, UniProt P33533). Description: (§1) Binding Assay: Binding assay of opioid receptor.
The next test has as its target Mu-type opioid receptor (Rattus norvegicus, UniProt P33535). The test is described as §1.

Chain of Mu-type opioid receptor (P33535 whole entry): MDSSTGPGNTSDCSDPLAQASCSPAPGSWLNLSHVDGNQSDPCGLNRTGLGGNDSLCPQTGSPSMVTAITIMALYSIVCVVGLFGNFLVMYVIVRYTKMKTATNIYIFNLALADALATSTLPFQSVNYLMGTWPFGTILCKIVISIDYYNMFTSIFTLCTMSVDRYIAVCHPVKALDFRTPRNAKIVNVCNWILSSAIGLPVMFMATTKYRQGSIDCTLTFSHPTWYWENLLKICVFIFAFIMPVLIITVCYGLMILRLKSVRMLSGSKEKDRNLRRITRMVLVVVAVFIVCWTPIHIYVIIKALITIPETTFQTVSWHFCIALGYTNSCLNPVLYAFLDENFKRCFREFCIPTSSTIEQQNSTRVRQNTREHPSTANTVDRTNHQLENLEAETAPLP
Chain of Delta-type opioid receptor (P33533 whole entry): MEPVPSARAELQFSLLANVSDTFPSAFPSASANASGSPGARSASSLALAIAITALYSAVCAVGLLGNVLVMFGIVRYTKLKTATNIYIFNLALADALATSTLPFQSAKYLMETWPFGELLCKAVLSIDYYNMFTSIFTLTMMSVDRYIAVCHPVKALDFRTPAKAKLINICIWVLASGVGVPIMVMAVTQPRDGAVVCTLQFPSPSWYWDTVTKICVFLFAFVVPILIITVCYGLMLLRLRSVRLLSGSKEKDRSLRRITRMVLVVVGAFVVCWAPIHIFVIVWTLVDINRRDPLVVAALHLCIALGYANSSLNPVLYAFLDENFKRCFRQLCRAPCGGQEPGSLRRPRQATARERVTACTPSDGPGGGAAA

As for `COc1ccc(NC(=O)C2=C(O)[C@@H]3Oc4c(O)ccc5c4[C@@]34CCN(CC3CC3)[C@H](C5)[C@]4(O)C2)cn1`, the values for the Ki (in test [1]; on Mu-type opioid receptor) were 27.6 nM and 2.29 nM, respectively.

In the case of `CC(C)NC(=O)C1=C(NS(=O)(=O)c2ccc(Cl)cc2)[C@@H]2Oc3c(O)ccc4c3[C@@]23CCN(CC2CC2)[C@H](C4)[C@]3(O)C1`, the Ki in test [1] was 0.56 nM; at Mu-type opioid receptor it was 11 nM.

Source of the values: ChEMBL document CHEMBL3639083, “6,7-unsaturated-7-carbamoyl substituted morphinan derivative” (2013).
